Experimental data taken from DBAASP.
≈ marks a conversion by molar mass, not a printed value. One block for each molecule: values may come before it.

Tests used:
Assay in all cases: ≥ marks a high value that may be exact or a test limit, other limits are often not marked, values filed in µg/mL are converted to µM
[1] = system: Mycobacterium tuberculosis H37Rv
[2] = system: Staphylococcus aureus Sa1390
[3] = system: Staphylococcus aureus NCTC 8325
[4] = system: Pseudomonas aeruginosa Pa1409
[5] = system: Escherichia coli Ec513
[6] = system: Acinetobacter baumannii Ab5753
[7] = system: Candida albicans ATCC 90028
[8] = system: Escherichia coli ATCC 25922
[9] = system: Lactococcus lactis MG1363
[10] = system: Escherichia coli INV-a
[11] = system: Pseudomonas aeruginosa CGMCC 1.860
[12] = system: Lactococcus lactis AS1.1690
[13] = system: Enterococcus faecalis CGMCC 1.595
[14] = system: Staphylococcus aureus AS1.72
[15] = system: Enterobacter cloacae CGMCC 1.58
[16] = system: Klebsiella aerogenes CGMCC 1.876
[17] = system: Enterococcus faecium CGMCC 1.2334
[18] = system: Klebsiella pneumoniae subsp. pneumoniae CGMCC 1.176
[19] = system: Bacillus cereus AS1.126
[20] = system: Escherichia coli AS1.349
[21] = system: Cryptococcus neoformans ATCC 90112
[22] = system: Bacillus thuringiensis ATCC 10792
[23] = system: Paracoccidioides brasiliensis
[24] = system: Staphylococcus aureus ATCC 25923
[25] = system: Enterococcus faecium CCT 5079
[26] = system: Cryptococcus gattii ATCC 56990
[27] = system: Escherichia coli ATCC 11775
[28] = system: Bacillus cereus ATCC 11778
[29] = system: Enterococcus hirae ATCC 10541
[30] = system: Staphylococcus aureus CCT 2580
[31] = system: Streptococcus pneumoniae ATCC 11733
[32] = system: Salmonella enterica subsp. enterica serovar Choleraesuis ATCC 10708
[33] = system: Pseudomonas aeruginosa ATCC 15422
[34] = system: Micrococcus luteus ATCC 4698
[35] = system: Pseudomonas aeruginosa ATCC 13388
[36] = system: Staphylococcus aureus CCT 6538
[37] = system: Streptococcus mutans AU159
[38] = system: Staphylococcus epidermidis ATCC 12228
[39] = system: Salmonella enterica subsp. enterica serovar Typhimurium ATCC 14028
[40] = system: Paracoccidioides lutzii ATCC MYA-826
[41] = system: Escherichia coli CCT 1457
[42] = system: Lacticaseibacillus rhamnosus 1.0911
[43] = system: Lacticaseibacillus rhamnosus 8014
[44] = system: Pseudomonas aeruginosa PAO1
[45] = system: Staphylococcus aureus ATCC 29213
[46] = system: Streptococcus agalactiae BNCC 185941
[47] = system: Pseudomonas aeruginosa ATCC 27853
[48] = system: Escherichia coli O157:H7 CICC 21530
[49] = system: Escherichia coli K88
[50] = system: Staphylococcus aureus ATCC 43300
[51] = system: Lacticaseibacillus rhamnosus 1.0936
[52] = system: Lacticaseibacillus rhamnosus 1.9021
[53] = system: Salmonella enterica subsp. enterica serovar Choleraesuis CVCC 503
[54] = system: Salmonella enterica subsp. enterica serovar Pullorum C79-13

- MIC [1]: 18.1 µM (≈ 37.5 µg/mL)
Compound: CC(C)C[C@H](NC(=O)[C@H](C)N)C(=O)N[C@@H](CCCCN)C(=O)N[C@@H](CCCCN)C(=O)N[C@@H](CC(C)C)C(=O)N[C@H](C(=O)N[C@@H](CCCN=C(N)N)C(=O)N[C@@H](Cc1c[nH]c2ccccc12)C(=O)N[C@@H](Cc1c[nH]c2ccccc12)C(=O)N[C@@H](CCCCN)C(=O)N[C@@H](CCCN=C(N)N)C(=O)N[C@@H](Cc1c[nH]c2ccccc12)C(=O)N[C@@H](Cc1c[nH]c2ccccc12)C(=O)N[C@@H](CO)C(=O)N[C@@H](CCCCN)C(=O)O)C(C)C [ALKKLVRWWKRWWSK]

- MIC [2]: 30.3 µM (≈ 63.9 µg/mL)
- MIC [3]: 17 µM (≈ 35.9 µg/mL)
- MIC [4]: ≥ 60.6 µM
- MIC [5]: ≥ 60.6 µM
- MIC [6]: ≥ 60.6 µM
- MIC [7]: 14 µM (≈ 29.5 µg/mL)
- MIC [8]: 4 µM (≈ 8.44 µg/mL)
Compound: CC[C@H](C)[C@H](NC(=O)[C@H](CC(C)C)NC(=O)[C@H](C)NC(=O)[C@@H]1CCCN1C(=O)[C@H](Cc1ccccc1)NC(=O)[C@H](C)NC(=O)[C@H](CCCCN)NC(=O)[C@H](CCSC)NC(=O)[C@H](CC(C)C)NC(=O)CNC(=O)CNC(=O)[C@H](CC(C)C)NC(=O)[C@@H](N)Cc1ccccc1)C(=O)N[C@H]1CSSC[C@@H](C(=O)O)NC(=O)[C@H](CCCCN)NC(=O)[C@H](CCCCN)NC(=O)[C@H]([C@@H](C)O)NC(=O)[C@H](C(C)C)NC(=O)[C@H](C)NC1=O [FLGGLMKAFPALICAVTKKC]

- MIC [9]: 21 µM (≈ 31.8 µg/mL)
- MIC [10]: ≥ 33 µM
Compound: CC[C@H](C)[C@H](N)C(=O)N[C@@H](CC(N)=O)C(=O)N[C@@H](Cc1c[nH]c2ccccc12)C(=O)N[C@@H](CCCCN)C(=O)NCC(=O)N[C@H](C(=O)N[C@@H](C)C(=O)N[C@@H](C)C(=O)N[C@@H](CCSC)C(=O)N[C@@H](C)C(=O)N[C@@H](CCCCN)C(=O)N[C@@H](CCCCN)C(=O)N[C@@H](CC(C)C)C(=O)N[C@@H](C)C(N)=O)[C@@H](C)CC [INWKGIAAMAKKLA]

More lines, now with the values behind:

Compound: NC(N)=NCCC[C@H](NC(=O)[C@H](Cc1cnc[nH]1)NC(=O)[C@H](Cc1c[nH]c2ccccc12)NC(=O)[C@H](Cc1ccccc1)NC(=O)[C@H](CCCN=C(N)N)NC(=O)[C@H](CCCN=C(N)N)NC(=O)[C@H](Cc1c[nH]c2ccccc12)NC(=O)[C@@H](N)Cc1cnc[nH]1)C(=O)O [HWRRFWHR]
- MIC [11]: 12.5 µM (≈ 16 µg/mL)
- MIC [12]: 25 µM (≈ 32 µg/mL)
- MIC [13]: 12.5 µM (≈ 16 µg/mL)
- MIC [14]: 12.5 µM (≈ 16 µg/mL)
- MIC [15]: ≥ 100 µM
- MIC [16]: ≥ 100 µM
- MIC [17]: 12.5 µM (≈ 16 µg/mL)
- MIC [18]: ≥ 100 µM
- MIC [19]: 3.13 µM (≈ 4.01 µg/mL)
- MIC [20]: 12.5 µM (≈ 16 µg/mL)

Compound: CC[C@H](C)[C@H](N)C(=O)N[C@@H](CC(N)=O)C(=O)N[C@@H](Cc1c[nH]c2ccccc12)C(=O)N[C@@H](CC(C)C)C(=O)N[C@@H](CCCCN)C(=O)N[C@H](C(=O)N[C@@H](C)C(=O)N[C@@H](CCCCN)C(=O)N[C@@H](CCCCN)C(=O)N[C@H](C(=O)N[C@@H](CCCCN)C(=O)NCC(=O)N[C@@H](CCSC)C(=O)N[C@@H](CC(C)C)C(N)=O)C(C)C)[C@@H](C)CC [INWLKIAKKVKGML]
- MIC [21]: 19 µM (≈ 31.2 µg/mL)
- MIC [22]: 18.9 µM (≈ 31 µg/mL)
- MIC [23]: 4.75 µM (≈ 7.8 µg/mL)
- MIC [24]: 2.44 µM (≈ 4 µg/mL)
- MIC [25]: 0.609 µM (≈ 0.999 µg/mL)
- MIC [26]: 9.5 µM (≈ 15.6 µg/mL)
- MIC [27]: 9.74 µM (≈ 16 µg/mL)
- MIC [28]: 18.9 µM (≈ 31 µg/mL)
- MIC [29]: 9.74 µM (≈ 16 µg/mL)
- MIC [30]: 2.44 µM (≈ 4 µg/mL)
- MIC [31]: 0.609 µM (≈ 0.999 µg/mL)
- MIC [32]: 18.9 µM (≈ 31 µg/mL)
- MIC [33]: 9.74 µM (≈ 16 µg/mL)
- MIC [34]: 1.22 µM (≈ 2 µg/mL)
- MIC [35]: 4.87 µM (≈ 8 µg/mL)
- MIC [36]: 4.87 µM (≈ 8 µg/mL)
- MIC [37]: 4.87 µM (≈ 8 µg/mL)
- MIC [7]: 9.51 µM (≈ 15.6 µg/mL)
- MIC [38]: 1.22 µM (≈ 2 µg/mL)
- MIC [39]: 4.87 µM (≈ 8 µg/mL)
- MIC [8]: 18.9 µM (≈ 31 µg/mL)
- MIC [40]: 9.5 µM (≈ 15.6 µg/mL)
- MIC [41]: 2.44 µM (≈ 4 µg/mL)

Compound: CC(C)C[C@H](NC(=O)[C@H](CCCCN)NC(=O)[C@H](CCCCN)NC(=O)CN)C(=O)N[C@@H](CC(C)C)C(=O)N[C@@H](Cc1c[nH]c2ccccc12)C(=O)N[C@@H](CC(C)C)C(=O)N[C@@H](CC(C)C)C(=O)N[C@@H](CCCCN)C(=O)N[C@@H](CCCCN)C(=O)NCC(N)=O [GKKLLWLLKKG]
- MIC [42]: ≥ 128 µM
- MIC [43]: ≥ 128 µM
- MIC [44]: 64 µM (≈ 82.1 µg/mL)
- MIC [45]: > 128 µM
- MIC [46]: ≥ 128 µM
- MIC [47]: > 128 µM
- MIC [48]: ≥ 64 µM
- MIC [49]: 16 µM (≈ 20.5 µg/mL)
- MIC [50]: > 128 µM
- MIC [51]: ≥ 128 µM
- MIC [38]: > 128 µM
- MIC [39]: > 128 µM
- MIC [52]: ≥ 128 µM
- MIC [53]: ≥ 64 µM
- MIC [54]: 16 µM (≈ 20.5 µg/mL)
